The source made the active and inactive calls. No cut-off for these calls is given here.
Legend:
[1] = target: T1, Mitogen-activated protein kinase kinase kinase 7 (Homo sapiens, UniProt O43318); assay: Binding affinity to recombinant human biotinylated N-terminal GST-tagged autophosphorylated TAK1 (1 to 303 residues) fused with TAB1 (437 to 504 residues) expressed in baculovirus infected sf9 cells by SPR assay
T1 sequence (O43318 whole entry): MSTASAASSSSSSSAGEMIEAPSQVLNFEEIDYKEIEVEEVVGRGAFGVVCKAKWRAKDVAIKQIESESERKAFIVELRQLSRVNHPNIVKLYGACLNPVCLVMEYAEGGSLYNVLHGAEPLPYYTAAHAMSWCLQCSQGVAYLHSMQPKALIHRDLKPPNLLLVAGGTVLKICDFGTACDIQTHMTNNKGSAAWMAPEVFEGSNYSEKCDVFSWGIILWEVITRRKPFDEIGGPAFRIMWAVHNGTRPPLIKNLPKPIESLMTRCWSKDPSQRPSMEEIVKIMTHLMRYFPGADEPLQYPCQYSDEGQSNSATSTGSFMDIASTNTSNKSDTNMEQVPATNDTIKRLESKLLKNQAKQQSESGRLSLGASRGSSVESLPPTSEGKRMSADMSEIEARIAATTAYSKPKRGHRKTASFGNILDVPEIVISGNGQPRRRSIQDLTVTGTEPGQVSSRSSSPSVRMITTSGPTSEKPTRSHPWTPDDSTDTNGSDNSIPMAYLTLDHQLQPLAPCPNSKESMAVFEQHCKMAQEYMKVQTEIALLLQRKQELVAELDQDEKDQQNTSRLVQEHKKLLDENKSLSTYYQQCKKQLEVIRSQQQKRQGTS

[2] = target: T1, Mitogen-activated protein kinase kinase kinase 7; assay: Binding affinity to recombinant human biotinylated N-terminal GST-tagged non-autophosphorylated TAK1 (1 to 303 residues) fused with TAB1 (437 to 504 residues) expressed in baculovirus infected sf9 cells by SPR assay
[3] = target: T2, Mitogen-activated protein kinase kinase kinase 7 (Homo sapiens) (UniProt O43318); assay: Binding affinity to TAK1 (unknown origin) at 5 uM using spin-labeled probe by 1H NMR method
T2 sequence (whole entry): T1 sequence (O43318 whole entry)

[4] = target: T2, Mitogen-activated protein kinase kinase kinase 7 (Homo sapiens); assay: Binding affinity to recombinant human biotinylated N-terminal GST-tagged TAK1 (1 to 303 residues) fused with TAB1 (437 to 504 residues) expressed in baculovirus infected sf9 cells at 250 uM in presence of adenosine by SPR assay
[5] = Solubility of the compound in 50 mM phosphate buffer at pH 6.5 after 24 hrs by HPLC-UV spectrophotometric assay; type: physicochemical
[6] = target: BMP-2-inducible protein kinase (Homo sapiens) (UniProt Q9NSY1); assay: Inhibition of human BIKE (S34 to N329 residues) expressed in bacterial expression system at 1 uM by KINOMEscan assay
[7] = Solubility of the compound in fasted state simulated intestinal fluid at pH 6.5 after 24 hrs by HPLC-UV spectrophotometric assay; type: physicochemical
[8] = target: T2, Mitogen-activated protein kinase kinase kinase 7 (Homo sapiens); assay: Binding affinity to recombinant human biotinylated N-terminal GST-tagged TAK1 (1 to 303 residues) fused with TAB1 (437 to 504 residues) expressed in baculovirus infected sf9 cells at 1 uM in presence of ATP by SPR assay
[9] = target: Epidermal growth factor receptor (Homo sapiens, UniProt P00533); assay: Inhibition of recombinant human N-terminal GST-tagged EGFR cytoplasmic domain (669 to 1210 residues) expressed in baculovirus expression system
Chain of Epidermal growth factor receptor (P00533 whole entry, the tested form may be a part): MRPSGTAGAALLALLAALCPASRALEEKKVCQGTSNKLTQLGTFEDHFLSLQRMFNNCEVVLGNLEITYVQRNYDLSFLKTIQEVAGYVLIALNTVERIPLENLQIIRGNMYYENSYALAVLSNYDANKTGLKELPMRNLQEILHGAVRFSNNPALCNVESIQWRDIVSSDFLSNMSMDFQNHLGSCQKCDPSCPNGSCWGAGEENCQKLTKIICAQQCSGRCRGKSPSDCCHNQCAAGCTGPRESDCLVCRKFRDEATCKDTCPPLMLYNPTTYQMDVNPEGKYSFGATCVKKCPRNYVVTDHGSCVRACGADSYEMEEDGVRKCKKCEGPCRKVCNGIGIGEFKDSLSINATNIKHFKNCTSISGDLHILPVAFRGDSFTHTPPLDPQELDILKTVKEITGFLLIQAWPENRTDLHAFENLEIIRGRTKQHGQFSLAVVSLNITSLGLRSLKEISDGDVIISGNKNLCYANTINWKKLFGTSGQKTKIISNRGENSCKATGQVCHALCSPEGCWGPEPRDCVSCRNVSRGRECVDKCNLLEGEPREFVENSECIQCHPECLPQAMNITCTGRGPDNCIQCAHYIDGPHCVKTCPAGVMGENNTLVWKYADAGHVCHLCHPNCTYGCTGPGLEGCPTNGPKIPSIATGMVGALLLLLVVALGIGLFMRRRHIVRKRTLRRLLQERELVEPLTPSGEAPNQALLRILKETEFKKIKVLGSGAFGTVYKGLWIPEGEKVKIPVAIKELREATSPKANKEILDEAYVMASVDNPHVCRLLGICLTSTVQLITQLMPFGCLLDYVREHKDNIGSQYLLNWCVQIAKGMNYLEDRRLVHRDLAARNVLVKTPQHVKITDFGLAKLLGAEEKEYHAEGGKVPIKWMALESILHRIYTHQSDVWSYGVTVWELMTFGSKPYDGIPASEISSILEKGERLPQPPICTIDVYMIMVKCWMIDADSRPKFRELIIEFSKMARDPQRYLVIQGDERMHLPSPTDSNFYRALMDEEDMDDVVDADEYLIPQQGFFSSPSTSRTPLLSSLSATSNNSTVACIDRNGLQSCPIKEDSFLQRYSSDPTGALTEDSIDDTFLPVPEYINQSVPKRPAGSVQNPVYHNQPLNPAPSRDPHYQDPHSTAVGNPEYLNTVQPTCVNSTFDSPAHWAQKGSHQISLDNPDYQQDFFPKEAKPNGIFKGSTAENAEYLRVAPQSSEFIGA

[10] = target: Mast/stem cell growth factor receptor Kit (Homo sapiens, UniProt P10721); assay: Inhibition of recombinant human N-terminal GST-tagged KIT cytoplasmic domain (544 to 976 residues) expressed in baculovirus expression system
[11] = Inhibition of PDGFR (unknown origin); set-up: species or system Homo sapiens
[12] = target: Receptor-type tyrosine-protein kinase FLT3 (Homo sapiens, UniProt P36888); assay: Inhibition of recombinant human N-terminal GST-tagged FLT3 cytoplasmic domain (564 to 993 residues) expressed in baculovirus expression system
[13] = target: Fibroblast growth factor receptor 2 (Homo sapiens, UniProt P21802); assay: Inhibition of recombinant human N-terminal GST-tagged FGFR2 cytoplasmic domain (399 to 821 residues) expressed in baculovirus expression system
[14] = target: Vascular endothelial growth factor receptor 2 (Homo sapiens, UniProt P35968); assay: Inhibition of recombinant human N-terminal GST-tagged KDR cytoplasmic domain (790 to 1356 residues) expressed in baculovirus expression system
[15] = target: Tyrosine-protein kinase receptor UFO (Homo sapiens, UniProt P30530); assay: Inhibition of recombinant human N-terminal GST-tagged AXL cytoplasmic domain (464 to 885 residues) expressed in baculovirus expression system
[16] = target: Macrophage-stimulating protein receptor (Homo sapiens, UniProt Q04912); assay: Inhibition of recombinant human N-terminal GST-tagged RON cytoplasmic domain (979 to 1400 residues) expressed in baculovirus expression system
[17] = target: Hepatocyte growth factor receptor (Homo sapiens, UniProt P08581); assay: Inhibition of recombinant human N-terminal GST-tagged MET cytoplasmic domain (956 to 1390 residues) expressed in baculovirus expression system
Chain of Hepatocyte growth factor receptor (P08581 whole entry, the tested form may be a part): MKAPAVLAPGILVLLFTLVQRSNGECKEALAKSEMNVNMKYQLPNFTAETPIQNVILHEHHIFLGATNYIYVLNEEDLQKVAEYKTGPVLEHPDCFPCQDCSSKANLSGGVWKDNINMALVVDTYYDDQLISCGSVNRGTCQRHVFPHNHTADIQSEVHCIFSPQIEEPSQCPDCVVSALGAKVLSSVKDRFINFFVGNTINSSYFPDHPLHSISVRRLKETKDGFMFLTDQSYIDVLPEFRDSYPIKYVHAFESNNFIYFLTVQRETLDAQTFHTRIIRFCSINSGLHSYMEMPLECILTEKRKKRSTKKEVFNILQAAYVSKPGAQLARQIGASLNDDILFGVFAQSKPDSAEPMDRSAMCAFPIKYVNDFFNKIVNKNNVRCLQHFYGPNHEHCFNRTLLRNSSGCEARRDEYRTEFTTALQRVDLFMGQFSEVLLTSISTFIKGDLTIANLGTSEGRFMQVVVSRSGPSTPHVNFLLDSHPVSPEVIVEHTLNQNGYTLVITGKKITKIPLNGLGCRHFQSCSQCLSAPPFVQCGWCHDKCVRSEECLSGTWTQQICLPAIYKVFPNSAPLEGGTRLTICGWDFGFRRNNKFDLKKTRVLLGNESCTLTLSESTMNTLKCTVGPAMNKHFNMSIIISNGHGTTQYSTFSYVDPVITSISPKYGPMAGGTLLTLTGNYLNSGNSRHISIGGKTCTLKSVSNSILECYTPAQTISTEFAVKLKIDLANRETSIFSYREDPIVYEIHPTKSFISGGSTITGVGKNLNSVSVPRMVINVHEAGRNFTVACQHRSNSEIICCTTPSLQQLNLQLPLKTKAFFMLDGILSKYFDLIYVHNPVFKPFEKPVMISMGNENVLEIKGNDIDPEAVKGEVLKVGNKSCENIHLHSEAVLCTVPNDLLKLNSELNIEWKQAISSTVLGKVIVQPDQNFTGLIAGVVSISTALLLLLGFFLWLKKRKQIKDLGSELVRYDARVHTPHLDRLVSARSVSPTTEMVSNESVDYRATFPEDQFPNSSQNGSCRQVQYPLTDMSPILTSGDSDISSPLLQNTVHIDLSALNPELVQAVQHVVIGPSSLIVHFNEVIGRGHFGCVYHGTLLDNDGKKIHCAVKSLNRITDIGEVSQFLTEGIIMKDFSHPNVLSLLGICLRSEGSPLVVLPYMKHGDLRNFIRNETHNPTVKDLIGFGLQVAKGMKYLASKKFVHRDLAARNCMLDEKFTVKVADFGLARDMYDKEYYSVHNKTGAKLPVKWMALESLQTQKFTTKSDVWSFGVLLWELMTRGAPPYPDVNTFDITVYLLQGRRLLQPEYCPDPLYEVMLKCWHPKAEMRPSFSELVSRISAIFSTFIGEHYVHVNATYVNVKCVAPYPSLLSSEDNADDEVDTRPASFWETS

[18] = target: Epithelial discoidin domain-containing receptor 1 (Homo sapiens, UniProt Q08345); assay: Inhibition of recombinant human N-terminal GST-tagged DDR1 cytoplasmic domain (444 to 876 residues) expressed in baculovirus expression system
[19] = target: Insulin-like growth factor 1 receptor (Homo sapiens, UniProt P08069); assay: Inhibition of recombinant human N-terminal GST-tagged IGF1R cytoplasmic domain (959 to 1367 residues) expressed in baculovirus expression system
Chain of Insulin-like growth factor 1 receptor (P08069 31-736 limits assumed): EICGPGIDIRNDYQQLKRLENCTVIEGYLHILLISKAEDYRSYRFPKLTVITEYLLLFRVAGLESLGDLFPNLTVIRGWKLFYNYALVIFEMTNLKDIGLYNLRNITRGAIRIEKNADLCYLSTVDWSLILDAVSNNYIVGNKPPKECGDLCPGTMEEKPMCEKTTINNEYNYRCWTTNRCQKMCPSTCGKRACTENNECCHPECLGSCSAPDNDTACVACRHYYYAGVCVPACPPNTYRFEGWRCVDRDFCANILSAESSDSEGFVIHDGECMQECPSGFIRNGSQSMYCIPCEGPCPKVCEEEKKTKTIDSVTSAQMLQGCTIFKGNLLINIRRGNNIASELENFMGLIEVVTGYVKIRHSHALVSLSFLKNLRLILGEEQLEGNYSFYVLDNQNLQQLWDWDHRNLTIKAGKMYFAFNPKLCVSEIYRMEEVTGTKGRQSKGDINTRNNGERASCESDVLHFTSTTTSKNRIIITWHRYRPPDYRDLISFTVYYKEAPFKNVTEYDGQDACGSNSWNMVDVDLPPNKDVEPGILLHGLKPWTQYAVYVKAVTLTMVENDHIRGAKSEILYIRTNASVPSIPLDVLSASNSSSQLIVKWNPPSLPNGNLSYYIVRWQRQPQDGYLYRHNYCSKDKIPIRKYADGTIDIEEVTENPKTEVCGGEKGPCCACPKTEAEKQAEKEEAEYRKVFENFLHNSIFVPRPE
Chain of Insulin-like growth factor 1 receptor (P08069 741-1367 limits assumed): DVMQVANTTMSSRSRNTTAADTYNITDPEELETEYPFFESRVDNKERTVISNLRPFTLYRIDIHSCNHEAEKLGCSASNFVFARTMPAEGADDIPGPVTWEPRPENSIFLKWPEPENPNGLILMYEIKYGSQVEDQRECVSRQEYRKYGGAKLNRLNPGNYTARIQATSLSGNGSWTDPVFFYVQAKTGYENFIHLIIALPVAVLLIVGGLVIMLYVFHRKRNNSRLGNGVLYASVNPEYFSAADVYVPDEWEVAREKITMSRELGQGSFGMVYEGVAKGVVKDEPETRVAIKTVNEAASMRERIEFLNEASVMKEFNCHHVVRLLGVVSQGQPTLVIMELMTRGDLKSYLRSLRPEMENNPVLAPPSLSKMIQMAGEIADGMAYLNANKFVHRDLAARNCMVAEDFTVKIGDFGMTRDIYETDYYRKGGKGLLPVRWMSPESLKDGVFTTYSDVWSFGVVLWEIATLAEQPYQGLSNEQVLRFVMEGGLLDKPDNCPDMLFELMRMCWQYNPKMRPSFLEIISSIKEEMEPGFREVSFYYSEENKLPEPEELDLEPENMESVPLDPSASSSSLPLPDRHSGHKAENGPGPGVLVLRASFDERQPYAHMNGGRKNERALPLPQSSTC

[20] = target: Insulin receptor (Homo sapiens, UniProt P06213); assay: Inhibition of recombinant human N-terminal GST-tagged INSR cytoplasmic domain (1005 to 1310 residues) expressed in baculovirus expression system
[21] = target: Leukocyte tyrosine kinase receptor (Homo sapiens, UniProt P29376); assay: Inhibition of recombinant human N-terminal GST-tagged LTK cytoplasmic domain (498 to 796 residues) expressed in baculovirus expression system
[22] = target: Ephrin type-A receptor 2 (Homo sapiens, UniProt P29317); assay: Inhibition of recombinant human N-terminal GST-tagged EPHA2 cytoplasmic domain (572 to 976 residues) expressed in baculovirus expression system
[23] = target: Focal adhesion kinase 1 (Homo sapiens, UniProt Q05397); assay: Inhibition of recombinant human N-terminal GST-tagged FAK cytoplasmic domain (376 to 1052 residues) expressed in baculovirus expression system
[24] = target: Tyrosine-protein kinase Yes (Homo sapiens, UniProt P07947); assay: Inhibition of recombinant full length human N-terminal GST-tagged YES (1 to 543 residues) expressed in baculovirus expression system
[25] = target: Proto-oncogene tyrosine-protein kinase Src (Homo sapiens, UniProt P12931); assay: Inhibition of recombinant full length human N-terminal GST-tagged SRC (1 to 536 residues) expressed in baculovirus expression system
[26] = target: Tyrosine-protein kinase Fyn (Homo sapiens, UniProt P06241); assay: Inhibition of FYN (unknown origin)
[27] = target: Tyrosine-protein kinase Lyn (Homo sapiens, UniProt P07948); assay: Inhibition of LYN (unknown origin)
[28] = target: Tyrosine-protein kinase Lck (Homo sapiens, UniProt P06239); assay: Inhibition of recombinant full length human N-terminal GST-tagged LCK (1 to 509 residues) expressed in baculovirus expression system
[29] = target: Protein-tyrosine kinase 6 (Homo sapiens, UniProt Q13882); assay: Inhibition of recombinant full length human N-terminal GST-tagged BRK (2 to 451 residues) expressed in baculovirus expression system
[30] = target: Tyrosine-protein kinase ABL1 (Homo sapiens, UniProt P00519); assay: Inhibition of recombinant full length human N-terminal GST-tagged ABL (2 to 1130 residues) expressed in baculovirus expression system
[31] = target: RAF proto-oncogene serine/threonine-protein kinase (Homo sapiens, UniProt P04049); assay: Inhibition of recombinant human N-terminal GST-tagged RAF1 catalytic domain (306 to 648 residues) expressed in baculovirus expression system
[32] = target: Dual specificity mitogen-activated protein kinase kinase 1 (Homo sapiens, UniProt Q02750); assay: Inhibition of MEK1 (unknown origin)
[33] = Inhibition of PKA (unknown origin); set-up: species or system Homo sapiens
[34] = target: RAC-alpha serine/threonine-protein kinase (Homo sapiens, UniProt P31749); assay: Inhibition of recombinant human N-terminal GST-tagged AKT1 catalytic domain (104 to 480 residues) expressed in baculovirus expression system
Chain of RAC-alpha serine/threonine-protein kinase (P31749 whole entry, the tested form may be a part): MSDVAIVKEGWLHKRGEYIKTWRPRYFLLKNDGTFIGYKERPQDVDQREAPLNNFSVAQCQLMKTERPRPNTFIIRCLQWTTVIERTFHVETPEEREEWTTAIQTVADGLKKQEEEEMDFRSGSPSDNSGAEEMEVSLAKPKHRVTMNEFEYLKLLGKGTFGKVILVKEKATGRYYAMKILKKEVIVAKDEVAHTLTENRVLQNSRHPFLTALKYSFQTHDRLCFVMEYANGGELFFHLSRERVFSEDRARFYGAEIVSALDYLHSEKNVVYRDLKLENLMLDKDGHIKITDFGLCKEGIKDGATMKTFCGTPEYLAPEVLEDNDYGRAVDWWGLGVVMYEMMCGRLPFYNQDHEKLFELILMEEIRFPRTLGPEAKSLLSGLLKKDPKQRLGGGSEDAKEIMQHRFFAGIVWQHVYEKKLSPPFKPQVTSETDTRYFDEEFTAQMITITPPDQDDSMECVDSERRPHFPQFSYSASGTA

[35] = target: Cyclin-dependent kinase 1 (Homo sapiens, UniProt P06493); assay: Inhibition of CDK1 (unknown origin)
[36] = target: Cyclin-dependent kinase 2 (Homo sapiens, UniProt P24941); assay: Inhibition of CDK2 (unknown origin)
[37] = target: Protein kinase C zeta type (Homo sapiens, UniProt Q05513); assay: Inhibition of recombinant full length human N-terminal GST-tagged PKCzeta (1 to 592 residues) expressed in baculovirus expression system
[38] = target: Protein kinase C alpha type (Homo sapiens, UniProt P17252); assay: Inhibition of recombinant full length human N-terminal GST-tagged PKCalpha (1 to 351 residues) expressed in baculovirus expression system
[39] = target: T3, Protein kinase C beta type (Homo sapiens, UniProt P05771); assay: Inhibition of recombinant full length human N-terminal GST-tagged PKCbeta1 (1 to 671 residues) expressed in baculovirus expression system
T3 sequence (P05771 whole entry, the tested form may be a part): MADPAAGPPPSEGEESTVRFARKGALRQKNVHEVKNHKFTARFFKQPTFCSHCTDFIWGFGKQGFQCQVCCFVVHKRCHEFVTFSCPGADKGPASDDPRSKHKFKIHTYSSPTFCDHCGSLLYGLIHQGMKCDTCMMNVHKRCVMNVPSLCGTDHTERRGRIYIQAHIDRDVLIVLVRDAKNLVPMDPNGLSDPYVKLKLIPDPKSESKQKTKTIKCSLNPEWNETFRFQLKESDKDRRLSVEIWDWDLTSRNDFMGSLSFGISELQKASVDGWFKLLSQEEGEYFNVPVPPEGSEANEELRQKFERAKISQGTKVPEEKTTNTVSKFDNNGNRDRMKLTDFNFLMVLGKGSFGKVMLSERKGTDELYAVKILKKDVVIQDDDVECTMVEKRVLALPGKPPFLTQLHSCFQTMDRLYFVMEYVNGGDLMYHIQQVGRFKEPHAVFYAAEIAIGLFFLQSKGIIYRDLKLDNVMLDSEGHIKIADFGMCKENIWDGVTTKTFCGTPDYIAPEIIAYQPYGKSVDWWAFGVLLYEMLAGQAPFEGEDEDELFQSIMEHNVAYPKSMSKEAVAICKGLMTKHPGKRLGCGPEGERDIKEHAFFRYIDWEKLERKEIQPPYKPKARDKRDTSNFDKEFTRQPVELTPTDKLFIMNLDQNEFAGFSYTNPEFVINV

[40] = target: T3, Protein kinase C beta type; assay: Inhibition of recombinant full length human N-terminal GST-tagged PKCbeta2 (1 to 673 residues) expressed in baculovirus expression system
[41] = target: Aurora kinase A (Homo sapiens, UniProt O14965); assay: Inhibition of recombinant full length human N-terminal GST-tagged Aurora kinase-A (1 to 403 residues) expressed in baculovirus expression system
[42] = target: Mitogen-activated protein kinase 14 (Homo sapiens, UniProt Q16539); assay: Inhibition of recombinant human N-terminal GST-tagged p38-alpha (9 to 352 residues) expressed in Escherichia coli expression system

## CN1CCN(c2cccc3cc(NC(=O)Nc4ccc(Oc5ccnc6[nH]ccc56)cc4)ccc23)CC1
[1]
  Kd: 0.012 µM

## Nc1ncnc2c1ncn2[C@@H]1O[C@H](CO)[C@@H](O)[C@H]1O [ADENOSINE]
[1]
  Kd: 4.4 µM
[2]
  Kd: 34 µM

## Nc1ncnc2c1ncn2[C@@H]1O[C@H](COP(=O)(O)OP(=O)(O)OP(=O)(O)O)[C@@H](O)[C@H]1O [ADENOSINE TRIPHOSPHATE]
[1]
  Kd: 2.8 µM

## Oc1cnnc(SCc2ccc(Br)cc2)n1
[3]
  Activity: Active
[4]
  Activity: Active

## Nc1ncnc2c1ncn2[C@@H]1O[C@H](COP(=O)(O)O)[C@@H](O)[C@H]1O [ADENOSINE PHOSPHATE]
[1]
  Kd: 120 µM
[2]
  Kd: 370 µM

## COc1cc2ncccc2cc1NC(=O)c1csc2cncnc12
[1]
  Kd: 0.059 µM
[2]
  Kd: 0.15 µM
[5]
  solubility at 24 h: < 3 µg/mL
[6]
  inhibition: Active
[7]
  solubility at 24 h: < 3 µg/mL
[8]
  Activity: Active
[9]
  IC50: > 50 µM
[10]
  IC50: > 50 µM
[11]
  IC50: > 50 µM
[12]
  IC50: 0.056 µM
[13]
  IC50: > 50 µM
[14]
  IC50: > 50 µM
[15]
  IC50: > 50 µM
[16]
  IC50: > 50 µM
[17]
  IC50: > 50 µM
[18]
  IC50: > 50 µM
[19]
  IC50: > 50 µM
[20]
  IC50: > 50 µM
[21]
  IC50: > 50 µM
[22]
  IC50: > 50 µM
[23]
  IC50: > 50 µM
[24]
  IC50: > 50 µM
[25]
  IC50: > 50 µM
[26]
  IC50: > 50 µM
[27]
  IC50: > 50 µM
[28]
  IC50: > 50 µM
[29]
  IC50: > 50 µM
[30]
  IC50: > 50 µM
[31]
  IC50: > 50 µM
[32]
  IC50: > 50 µM
[33]
  IC50: > 50 µM
[34]
  IC50: > 50 µM
[35]
  IC50: > 50 µM
[36]
  IC50: > 50 µM
[37]
  IC50: > 50 µM
[38]
  IC50: > 50 µM
[39]
  IC50: > 50 µM
[40]
  IC50: > 50 µM
[41]
  IC50: 42 µM
[42]
  IC50: > 50 µM

## Nc1ncnc2c1ncn2[C@@H]1O[C@H](COP(=O)(O)OP(=O)(O)O)[C@@H](O)[C@H]1O [ADENOSINE DIPHOSPHATE]
[1]
  Kd: 4.1 µM
[2]
  Kd: 63 µM

Reference: ChEMBL document CHEMBL4002626, “Identification of a selective inhibitor of transforming growth factor β-activated kinase 1 by biosensor-based screening of focused libraries” (Bioorg Med Chem Lett, 2017)
